One assay has as its target Histone deacetylase 3 (Homo sapiens, UniProt O15379). In words: Inhibition of human HDAC3 using fluorogenic HDAC substrate.
In a further assay the target is Histone deacetylase 4 (Homo sapiens, UniProt P56524). The assay can be described thus: Inhibition of human HDAC4 using fluorogenic HDAC substrate.
For a further assay, the target named is Histone deacetylase 9 (Homo sapiens, UniProt Q9UKV0). In words: Inhibition of human HDAC9 using fluorogenic HDAC substrate.
Assay [1] concerns the target T1, Polyamine deacetylase HDAC10 (Homo sapiens, UniProt Q969S8).
T1 sequence (Q969S8 whole entry): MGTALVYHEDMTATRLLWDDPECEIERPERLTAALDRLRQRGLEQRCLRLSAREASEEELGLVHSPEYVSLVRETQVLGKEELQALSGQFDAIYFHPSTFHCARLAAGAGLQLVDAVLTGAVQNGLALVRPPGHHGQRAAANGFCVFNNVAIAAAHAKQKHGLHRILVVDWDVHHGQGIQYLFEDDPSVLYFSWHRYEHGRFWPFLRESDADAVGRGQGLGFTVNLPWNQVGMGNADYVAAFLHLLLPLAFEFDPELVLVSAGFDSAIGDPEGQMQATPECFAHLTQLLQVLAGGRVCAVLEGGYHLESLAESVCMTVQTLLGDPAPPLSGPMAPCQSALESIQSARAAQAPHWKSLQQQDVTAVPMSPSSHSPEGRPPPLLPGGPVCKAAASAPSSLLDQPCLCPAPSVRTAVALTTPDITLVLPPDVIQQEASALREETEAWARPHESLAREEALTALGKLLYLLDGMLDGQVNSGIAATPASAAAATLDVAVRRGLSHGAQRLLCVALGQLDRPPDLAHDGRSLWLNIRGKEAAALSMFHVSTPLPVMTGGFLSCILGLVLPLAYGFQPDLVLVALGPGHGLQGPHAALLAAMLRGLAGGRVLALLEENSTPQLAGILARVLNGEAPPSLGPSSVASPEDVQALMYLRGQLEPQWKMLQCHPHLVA
The assay can be described thus: Inhibition of human HDAC10 using fluorogenic HDAC substrate.

Structures are written as SMILES.

Sequence of Histone deacetylase 4 (P56524 whole entry): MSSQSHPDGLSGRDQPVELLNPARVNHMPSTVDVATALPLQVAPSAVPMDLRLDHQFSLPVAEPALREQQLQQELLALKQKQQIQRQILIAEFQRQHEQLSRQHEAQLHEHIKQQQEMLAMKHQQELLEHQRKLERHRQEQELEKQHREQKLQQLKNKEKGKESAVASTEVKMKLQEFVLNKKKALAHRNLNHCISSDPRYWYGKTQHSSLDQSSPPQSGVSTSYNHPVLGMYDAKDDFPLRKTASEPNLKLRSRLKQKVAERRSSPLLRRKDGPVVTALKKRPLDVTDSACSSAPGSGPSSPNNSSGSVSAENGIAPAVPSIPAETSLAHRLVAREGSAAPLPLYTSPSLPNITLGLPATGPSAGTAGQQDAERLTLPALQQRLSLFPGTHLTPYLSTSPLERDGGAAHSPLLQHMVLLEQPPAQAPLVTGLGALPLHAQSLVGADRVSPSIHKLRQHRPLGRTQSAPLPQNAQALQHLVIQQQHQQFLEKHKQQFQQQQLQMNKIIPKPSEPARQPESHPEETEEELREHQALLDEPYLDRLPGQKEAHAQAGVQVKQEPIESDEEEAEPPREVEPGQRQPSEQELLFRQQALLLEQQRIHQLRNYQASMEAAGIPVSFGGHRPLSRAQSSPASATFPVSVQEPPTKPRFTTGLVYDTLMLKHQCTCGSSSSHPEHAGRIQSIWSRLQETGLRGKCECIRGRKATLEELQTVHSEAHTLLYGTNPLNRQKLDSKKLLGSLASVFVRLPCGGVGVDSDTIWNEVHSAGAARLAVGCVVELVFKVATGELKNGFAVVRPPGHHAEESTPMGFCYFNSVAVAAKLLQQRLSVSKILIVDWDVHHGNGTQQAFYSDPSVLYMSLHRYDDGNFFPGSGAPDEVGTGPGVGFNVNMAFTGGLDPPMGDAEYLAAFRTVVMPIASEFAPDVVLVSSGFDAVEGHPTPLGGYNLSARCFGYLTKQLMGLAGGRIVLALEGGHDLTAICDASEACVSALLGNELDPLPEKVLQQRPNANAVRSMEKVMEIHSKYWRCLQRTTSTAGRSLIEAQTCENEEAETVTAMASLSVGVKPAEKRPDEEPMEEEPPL
Sequence of Histone deacetylase 9 (Q9UKV0 whole entry): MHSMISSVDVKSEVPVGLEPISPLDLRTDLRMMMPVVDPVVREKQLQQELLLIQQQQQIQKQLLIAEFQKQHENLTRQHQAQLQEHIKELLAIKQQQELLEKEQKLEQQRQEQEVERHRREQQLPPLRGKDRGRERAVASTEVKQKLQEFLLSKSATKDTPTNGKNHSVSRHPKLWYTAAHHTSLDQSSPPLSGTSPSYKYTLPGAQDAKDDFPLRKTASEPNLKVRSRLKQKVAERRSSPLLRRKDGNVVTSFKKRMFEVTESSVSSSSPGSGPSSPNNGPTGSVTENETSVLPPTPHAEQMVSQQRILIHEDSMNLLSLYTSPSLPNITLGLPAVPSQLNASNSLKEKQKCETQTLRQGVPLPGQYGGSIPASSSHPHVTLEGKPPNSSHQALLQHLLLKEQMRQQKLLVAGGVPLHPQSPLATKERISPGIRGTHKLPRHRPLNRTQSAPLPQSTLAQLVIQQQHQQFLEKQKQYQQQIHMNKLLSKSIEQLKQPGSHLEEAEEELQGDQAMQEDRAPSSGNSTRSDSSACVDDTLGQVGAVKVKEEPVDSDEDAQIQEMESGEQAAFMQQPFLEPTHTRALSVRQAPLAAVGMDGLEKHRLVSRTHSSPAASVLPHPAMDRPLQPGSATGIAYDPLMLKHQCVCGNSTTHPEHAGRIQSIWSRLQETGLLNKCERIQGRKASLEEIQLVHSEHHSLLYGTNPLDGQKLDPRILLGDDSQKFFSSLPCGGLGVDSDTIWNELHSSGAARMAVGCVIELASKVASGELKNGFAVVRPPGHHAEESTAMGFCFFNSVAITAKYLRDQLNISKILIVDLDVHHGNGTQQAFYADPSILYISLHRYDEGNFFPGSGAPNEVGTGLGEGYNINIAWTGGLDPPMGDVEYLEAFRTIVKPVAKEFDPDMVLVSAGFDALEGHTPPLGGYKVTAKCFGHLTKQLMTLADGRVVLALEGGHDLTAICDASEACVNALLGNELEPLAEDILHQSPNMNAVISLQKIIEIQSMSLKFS
Sequence of Histone deacetylase 3 (O15379 whole entry): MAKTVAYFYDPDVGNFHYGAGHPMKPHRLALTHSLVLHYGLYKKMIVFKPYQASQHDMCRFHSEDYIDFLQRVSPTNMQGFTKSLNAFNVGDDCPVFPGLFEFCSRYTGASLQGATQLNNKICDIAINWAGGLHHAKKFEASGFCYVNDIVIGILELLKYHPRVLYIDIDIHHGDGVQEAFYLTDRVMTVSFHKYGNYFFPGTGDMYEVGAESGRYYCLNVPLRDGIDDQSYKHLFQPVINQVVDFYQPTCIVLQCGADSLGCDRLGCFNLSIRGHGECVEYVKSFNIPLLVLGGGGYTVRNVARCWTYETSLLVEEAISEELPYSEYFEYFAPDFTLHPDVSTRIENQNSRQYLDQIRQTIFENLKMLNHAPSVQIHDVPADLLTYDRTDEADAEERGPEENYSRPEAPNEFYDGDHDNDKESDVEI

Usually IC50 stands for the midpoint of a concentration-inhibition curve. Read a low IC50 as greater potency in that assay. Consider `O=C(NO)c1ccc(CN2c3ccccc3CC[C@@H]3CCCC[C@H]32)cc1`, for which the IC50 was greater than 30 µM against Histone deacetylase 3, greater than 30 µM on Histone deacetylase 4, 8.9 µM at Histone deacetylase 9 and 14 µM in assay [1].

The values are drawn from ChEMBL document CHEMBL4422610, “HDAC as onco target: Reviewing the synthetic approaches with SAR study of their inhibitors” (Eur J Med Chem, 2018).
